Measurements from US7071293B1, “Alpha helical peptides with broad spectrum antimicrobial activity that are insensitive to salt” (priority 1999, dated 2006).
In brackets after ≈: the same amount, converted by molar mass. Several values for one entry are separate records, joined by “and”; a condition that tells them apart may be missing. Equal values may be shown once. Read-outs that look alike come from different tables or passages of the source. Ends that are not written are not given here.

Legend:
[1] = test system: Bacillus spp.; conditions: cited from earlier work
[2] = test system: Bacteroides fragilis; conditions: cited from earlier work
[3] = test system: Bordetella bronchiseptica; conditions: cited from earlier work
[4] = test system: Borrelia burgdorferi; conditions: cited from earlier work
[5] = test system: Branhamella (Moraxella) catarrhalis; conditions: MIC range; Branhamella (Moraxella) catarrhalis (β-lactamase producer); cited from earlier work
[6] = test system: Campylobacter jejuni; conditions: cited from earlier work
[7] = test system: Campylobacter pylori; conditions: cited from earlier work
[8] = test system: Enterococcus faecium; conditions: cited from earlier work
[9] = test system: Enterococcus spp.; conditions: cited from earlier work
[10] = test system: Haemophilus ducreyi; conditions: cited from earlier work
[11] = test system: Haemophilus influenzae; conditions: cited from earlier work; for MIC50 / MIC90: in µg/mL; for Range: MIC range
[12] = test system: Haemophilus parainfluenzae; conditions: cited from earlier work
[13] = test system: Listeria monocytogenes; conditions: cited from earlier work
[14] = test system: Neisseria gonorrhoeae; conditions: cited from earlier work; for MIC90: in µg/mL
[15] = test system: Neisseria meningitidis; conditions: cited from earlier work
[16] = test system: Staphylococcus aureus; conditions: cited from earlier work
[17] = test system: Streptococcus agalactiae; conditions: cited from earlier work
[18] = test system: Streptococcus pneumoniae; conditions: cited from earlier work
[19] = test system: Streptococcus pyogenes; conditions: in µg/mL; cited from earlier work
[20] = test system: Streptococcus spp.; conditions: cited from earlier work
[21] = test system: Mycoplasma hominis; conditions: cited from earlier work
[22] = test system: Mycoplasma pneumoniae; conditions: cited from earlier work
[23] = test system: P. aeruginosa PAO1; experiment: Relative time for killing (luminescence measured at intervals); assay type: cell-based; conditions: peptide at ten times its EC50 (SMAP29X-18D 15.7 X, SMAP29X-14A 17.4 X), 25 mM ionic strength
[24] = test system: P. aeruginosa PAO1; conditions: avg ± sem
[25] = test system: vancomycin and methicillin-resistant Gram-positives
[26] = test system: E. coli ML-35p; conditions: Table 13; for MIC E. coli [NaCl] High: high salt underlay (10 mM sodium phosphate buffer +100 mM NaCl, pH 7.4); for MIC E. coli [NaCl] Low: low salt underlay (10 mM sodium phosphate buffer, pH 7.4)
[27] = test system: P. aeruginosa MR 3007; conditions: MR 3007, pH 7.4
[28] = test system: S. aureus 930918-3; conditions: 930918-3, pH 7.4
[29] = test system: MRSA ATCC 33591; conditions: ATCC 33591, pH 7.4
[30] = Haemophilus influenzae (non β-lactamase producer)
[31] = Haemophilus influenzae (penicillin resistant)
[32] = Haemophilus influenzae (penicillin susceptible)
[33] = Haemophilus influenzae (β-lactamase producer)
[34] = Staphylococcus aureus (penicillin susceptible)
[35] = E.f 142-1498-1 (Enterococcus fecaelis), Van A (vancomycin-resistant)
[36] = E.f 142-6873-3 (Enterococcus fecaelis), Van B (vancomycin-resistant)

Molecule: CC[C@H]1OC(=O)[C@H](C)[C@@H](O[C@H]2C[C@@](C)(OC)[C@@H](O)[C@H](C)O2)[C@H](C)[C@@H](O[C@@H]2O[C@H](C)C[C@H](N(C)C)[C@H]2O)[C@](C)(O)C[C@@H](C)C(=O)[C@H](C)[C@@H](O)[C@]1(C)O [ERYTHROMYCIN, erythromycin]
- Range ([1]; MIC range): 0.03–2
- MIC90 [1]: 2 µg/mL (≈ 2.73 µM)
- Range ([2]; MIC range): 0.25–16
- MIC50 [2]: 1 µg/mL (≈ 1.36 µM)
- MIC90 [2]: 8 µg/mL (≈ 10.9 µM)
- Range ([3]; MIC range): 4–32
- MIC50 [3]: 8 µg/mL (≈ 10.9 µM)
- MIC90 [3]: 32 µg/mL (≈ 43.6 µM)
- MIC50 [4]: 0.03 µg/mL (≈ 0.0409 µM)
- MIC90 [4]: 0.06 µg/mL (≈ 0.0818 µM)
- Range [5]: 0.06–1 and 0.03–0.25 and 0.06–8
- Range ([6]; MIC range): 0.5–8
- MIC90 ([6]; in µg/mL): 4 and 2
- Range ([7]; MIC range): 0.25–16
- MIC50 [7]: 0.5 µg/mL (≈ 0.681 µM)
- MIC50 [8]: 1 µg/mL (≈ 1.36 µM)
- MIC50 [9]: 2 µg/mL (≈ 2.73 µM)
- MIC50 [10]: 0.004 µg/mL (≈ 0.00545 µM)
- MIC90 [10]: 0.06 µg/mL (≈ 0.0818 µM)
- MIC50 [11, 30]: 2 and 4
- MIC90 [11, 30]: 4 and 8
- MIC50 [11, 31]: 8
- MIC90 [11, 31]: 16
- MIC50 [11, 32]: 8
- MIC90 [11, 32]: 16
- MIC50 [11, 33]: 4 and 2
- MIC90 [11, 33]: 8 and 4
- MIC50 ([11]; Haemophilus influenzae): 2 and 1
- MIC90 ([11]; Haemophilus influenzae): 2 and 4
- Range [11, 31]: 8–16
- Range [11, 32]: 0.25–16
- Range ([11]; Haemophilus influenzae): 0.5–8
- Range ([12]; MIC range): 0.5–8
- MIC50 [12]: 2 µg/mL (≈ 2.73 µM)
- MIC90 [12]: 4 µg/mL (≈ 5.45 µM)
- MIC50 [13]: 0.5 µg/mL (≈ 0.681 µM)
- Range ([14]; MIC range, Neisseria gonorrhoeae (non β-lactamase producer)): 0.015–4 and 0.03–2
- MIC90 ([14]; Neisseria gonorrhoeae (non β-lactamase producer)): 2 and 1
- MIC90 ([14]; Neisseria gonorrhoeae (β-lactamase producer)): 2 and 4
- MIC90 ([14]; Neisseria gonorrhoeae): 1
- Range ([15]; MIC range): 0.5–8
- MIC50 [15]: 1 µg/mL (≈ 1.36 µM)
- MIC90 [15]: 8 µg/mL (≈ 10.9 µM)
- MIC50 ([16]; Staphylococcus aureus (methicillin susceptible)): 0.5 µg/mL (≈ 0.681 µM)
- MIC50 [16, 34]: 0.5 µg/mL (≈ 0.681 µM)
- MIC90 [16, 34]: 0.5 µg/mL (≈ 0.681 µM)
- MIC50 ([16]; Staphylococcus aureus): 0.5 µg/mL (≈ 0.681 µM)
- Range ([17]; MIC range): 0.03–0.25 and 0.015–0.06
- MIC50 [17]: 0.03 µg/mL (≈ 0.0409 µM)
- MIC90 [17]: 0.03 µg/mL (≈ 0.0409 µM)
- Range ([18]; MIC range): 0.03–0.25 and 0.015–0.06 and 0.015–0.25
- MIC50 ([18]; in µg/mL): 0.06 and 0.03
- MIC90 ([18]; in µg/mL): 0.03 and 0.06
- MIC50 [19]: 0.06 and 0.03
- MIC50 [20]: 0.03 µg/mL (≈ 0.0409 µM)

Molecule: CCC[C@@H]1C[C@@H](C(=O)N[C@@H]([C@H]2O[C@H](SC)[C@H](O)[C@@H](O)[C@H]2O)[C@@H](C)O)N(C)C1 [LINCOMYCIN, lincomycin]
- Range ([21]; MIC range): 0.5–16
- MIC50 [21]: 2 µg/mL (≈ 4.92 µM)
- MIC90 [21]: 4 µg/mL (≈ 9.84 µM)
- Range ([22]; MIC range): 2–32
- MIC50 [22]: 8 µg/mL (≈ 19.7 µM)
- MIC90 [22]: 32 µg/mL (≈ 78.7 µM)
- Range ([16]; MIC range, Staphylococcus aureus): 0.5–512
- MIC50 ([16]; Staphylococcus aureus): 1 µg/mL (≈ 2.46 µM)
- MIC90 ([16]; Staphylococcus aureus): 1 µg/mL (≈ 2.46 µM)

Molecule: KNLRRIIRKIIHIIKKYG [SMAP29X-18D]
- Half-time of Killing (min. avg. ± sem) [23]: 2.9 min
- EC50 P. aeruginosa PAO1 ([24]; ionic strength 25 mM): 0.29 ± 0.01 µg/mL
- EC50 P. aeruginosa PAO1 ([24]; ionic strength 175 mM): 0.58 ± 0.05 µg/mL
- MIC [25, 35]: 32 µg/mL
- MIC [25, 36]: 64 µg/mL
- MIC E. coli [NaCl] High [26]: 0.5 µg/mL
- MIC E. coli [NaCl] Low [26]: 0.8 µg/mL
- MIC P. aeruginosa [NaCl] High [27]: 0.5 µg/mL
- MIC P. aeruginosa [NaCl] Low [27]: 1.1 µg/mL
- MIC S. aureus [NaCl] High [28]: 1.4 µg/mL
- MIC S. aureus [NaCl] Low [28]: 2.0 µg/mL
- MIC MRSA [NaCl] High [29]: 0.8 µg/mL
- MIC MRSA [NaCl] Low [29]: 8.7 µg/mL

Molecule: LRRIIRKIIHIIKK-NH2 [SMAP29X-14A]
- Half-time of Killing (min. avg. ± sem) [23]: 20.9 min
- EC50 P. aeruginosa PAO1 ([24]; ionic strength 25 mM): 0.23 ± 0.03 µg/mL
- EC50 P. aeruginosa PAO1 ([24]; ionic strength 175 mM): 1.59 ± 0.22 µg/mL
- MIC [25, 35]: >64 µg/mL
- MIC [25, 36]: >64 µg/mL
- MIC E. coli [NaCl] High [26]: 0.9 µg/mL
- MIC E. coli [NaCl] Low [26]: 2.9 µg/mL
- MIC P. aeruginosa [NaCl] High [27]: 2.7 µg/mL
- MIC P. aeruginosa [NaCl] Low [27]: 2.0 µg/mL
- MIC S. aureus [NaCl] High [28]: 1.9 µg/mL
- MIC S. aureus [NaCl] Low [28]: 1.1 µg/mL
- MIC MRSA [NaCl] High [29]: >79.1 µg/mL
- MIC MRSA [NaCl] Low [29]: 7.6 µg/mL
